According to patent publication US20260297070A1, “CYCLIC [COMPOUND LEFT OUT] WRN INHIBITORS” (Nimbus Wadjet, Inc., priority 2023, published 2026):
pIC50: −log10 of the molar value.

These compounds were tested against T1, human Werner helicase (WRN-BV08, Uniprot Q14191, amino acids 517-1235 with L1074F point mutation) (Homo sapiens, UniProt Q14191, L1074F) (assay: WRN (BV08) ADP-Glo Assay). Details: 0.15 nM WRN, 5 μM ATP, 0.1 nM DNA duplex, 15 min preincubation, 60 min at 25° C., pH 7.5, 1% DMSO; read-out: ADP-Glo_hWRN_IC50.
T1 construct: Uniprot Q14191, amino acids 517-1235 with L1074F point mutation; TEV-cleavable 8×His (C, cleaved yes); made in house; host or cells: Sf9 insect cells (baculovirus)
T1 sequence (Q14191 with tags, fused parts or gaps L1074F limits assumed): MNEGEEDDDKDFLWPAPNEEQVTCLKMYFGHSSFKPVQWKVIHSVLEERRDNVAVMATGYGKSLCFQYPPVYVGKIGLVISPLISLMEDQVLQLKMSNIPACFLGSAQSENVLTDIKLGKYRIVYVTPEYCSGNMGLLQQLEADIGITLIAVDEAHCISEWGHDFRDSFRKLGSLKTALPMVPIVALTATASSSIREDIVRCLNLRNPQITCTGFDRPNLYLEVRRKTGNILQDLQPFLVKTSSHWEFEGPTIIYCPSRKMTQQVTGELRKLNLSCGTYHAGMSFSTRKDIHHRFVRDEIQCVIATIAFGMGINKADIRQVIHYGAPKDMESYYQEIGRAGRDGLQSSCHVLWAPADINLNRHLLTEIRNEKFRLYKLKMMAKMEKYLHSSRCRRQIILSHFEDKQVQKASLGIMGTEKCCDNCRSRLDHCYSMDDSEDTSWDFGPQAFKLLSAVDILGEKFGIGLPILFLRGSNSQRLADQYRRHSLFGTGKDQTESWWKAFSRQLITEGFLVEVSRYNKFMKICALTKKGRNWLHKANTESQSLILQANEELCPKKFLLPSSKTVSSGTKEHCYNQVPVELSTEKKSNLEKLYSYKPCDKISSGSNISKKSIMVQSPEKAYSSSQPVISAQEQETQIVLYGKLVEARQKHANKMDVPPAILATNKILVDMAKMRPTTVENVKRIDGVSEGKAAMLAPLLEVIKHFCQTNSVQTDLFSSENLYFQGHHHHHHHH
Type: biochemical
Summary of the method: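 ADP-Glo luminescence read-out of ATP hydrolysis. Conditions: 0.15 nM WRN, 5 μM ATP, 0.1 nM DNA duplex, 1% DMSO, 60 min at 25 °C after 15 min compound preincubation. Max/min controls were DMSO and 20 μM NSC-617145; IC50 from four-parameter fit.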

Row | pIC50 | Compound
1 | < 4.30 | O=C(Cn1c(=O)n(C2=CCCCC2)c2ccccc21)N(Cc1ccncc1)C1C=CS(=O)(=O)C1 (centres unmarked) [I-680, 2-[3-(cyclohex-1-en-1-yl)-2-oxo-2,3-dihydro-1H-1,3-benzodiazol-1-yl]-N-(1,1-dioxo-2,3-dihydro-1lambda6-thiophen-3-yl)-N-[(pyridin-4-yl)methyl]acetamide]
2 | 4.30 to 5.00 | O=C(Cc1cc2ccccc2s1)N(Cc1ccncc1)C1C=CS(=O)(=O)C1 (centres unmarked) [I-301, 2-(1-benzothiophen-2-yl)-N-(1,1-dioxo-2,3-dihydro-1lambda6-thiophen-3-yl)-N-[(pyridin-4-yl)methyl]acetamide]
3 | 4.30 to 5.00 | O=C(Cc1ccc2ccccc2c1)N(Cc1ccncc1)C1C=CS(=O)(=O)C1 (centres unmarked) [I-315, N-(1,1-dioxo-2,3-dihydro-1lambda6-thiophen-3-yl)-2-(naphthalen-2-yl)-N-[(pyridin-4-yl)methyl]acetamide]
4 | 5.00 to 5.30 | COc1cc(C(C)N(C(=O)Cn2cc(-c3cc(F)c(F)c(F)c3)cn2)C2C=CS(=O)(=O)C2)ccn1 (single isomer, unassigned) [I-830, N-[(3R**)-1,1-dioxo-2,3-dihydro-1lambda6-thiophen-3-yl]-N-[(1R*)-1-(2-methoxypyridin-4-yl)ethyl]-2-[4-(3,4,5-trifluorophenyl)-1H-pyrazol-1-yl]acetamide]
5 | > 6.30 | Cc1nc(CN(C(=O)Cc2ccc(S(F)(F)(F)(F)F)cc2)C2C=CS(=O)(=O)C2)sc1C (centres unmarked) [I-612, N-[(4,5-dimethyl-1,3-thiazol-2-yl)methyl]-N-(1,1-dioxo-2,3-dihydro-1lambda6-thiophen-3-yl)-2-[4-(pentafluoro-lambda6-sulfanyl)phenyl]acetamide]
6 | > 6.30 | CC(C)(O)c1csc(CN(C(=O)Cc2ccc(S(F)(F)(F)(F)F)cc2)C2C=CS(=O)(=O)C2)n1 (single isomer, unassigned) [I-709]
7 | > 6.30 | CC(C)(O)c1cc(CN(C(=O)C(c2ccc(-c3ccc(F)c(F)c3)cc2F)n2cccn2)[C@@H]2C=CS(=O)(=O)C2)ccn1 (single isomer, unassigned) [I-682]
8 | < 4.30 | O=C(Cn1nc(C(F)F)c2c1CCCC2)N(Cc1ccncc1)C1C=CS(=O)(=O)C1 (centres unmarked) [I-616, 2-[3-(difluoromethyl)-4,5,6,7-tetrahydro-1H-indazol-1-yl]-N-(1,1-dioxo-2,3-dihydro-1lambda6-thiophen-3-yl)-N-[(pyridin-4-yl)methyl]acetamide]
9 | < 4.30 | O=C(Cc1ccc(-n2cccc2)cc1)N(C1C=CS(=O)(=O)C1)C(CO)c1ccccc1 (centres unmarked) [I-525, N-(1,1-dioxo-2,3-dihydro-1lambda6-thiophen-3-yl)-N-(2-hydroxy-1-phenylethyl)-2-[4-(1H-pyrrol-1-yl)phenyl]acetamide]
10 | 5.30 to 6.30 | CC(C)(O)c1csc(CN(C(=O)Cn2cc(-c3cc(F)c(F)c(F)c3)cn2)C2C=CS(=O)(=O)C2)n1 (single isomer, unassigned) [I-799]
11 | > 6.30 | CC(C)(O)c1cc(CN(C(=O)Cc2ncc(-c3ccc(F)c(F)c3)cc2F)C2C=CS(=O)(=O)C2)ccn1 (centres unmarked) [I-82, 2-[5-(3,4-difluorophenyl)-3-fluoropyridin-2-yl]-N-(1,1-dioxo-2,3-dihydro-1lambda6-thiophen-3-yl)-N-{[2-(2-hydroxypropan-2-yl)pyridin-4-yl]methyl}acetamide]
12 | 4.30 to 5.00 | O=C(Cn1ncc(-c2ccccc2)n1)N(Cc1ccncc1)C1C=CS(=O)(=O)C1 (centres unmarked) [I-291, N-(1,1-dioxo-2,3-dihydro-1lambda6-thiophen-3-yl)-2-(4-phenyl-2H-1,2,3-triazol-2-yl)-N-[(pyridin-4-yl)methyl]acetamide]
13 | 5.30 to 6.30 | O=C(Cc1ncc(-c2ccc(F)c(F)c2)cc1F)N(Cc1ccnc(OC(F)F)c1)C1C=CS(=O)(=O)C1 (centres unmarked) [I-698, N-{[2-(difluoromethoxy)pyridin-4-yl]methyl}-2-[5-(3,4-difluorophenyl)-3-fluoropyridin-2-yl]-N-(1,1-dioxo-2,3-dihydro-1lambda6-thiophen-3-yl)acetamide]
14 | > 6.30 | Cc1cccn1-c1ccc(CC(=O)N(Cc2nc3ccccc3s2)C2C=CS(=O)(=O)C2)c(F)c1 (centres unmarked) [I-73, N-[(1,3-benzothiazol-2-yl)methyl]-N-(1,1-dioxo-2,3-dihydro-1lambda6-thiophen-3-yl)-2-[2-fluoro-4-(2-methyl-1H-pyrrol-1-yl)phenyl]acetamide]
15 | > 6.30 | COc1cc(CN(C(=O)C(O/C=C/S(C)(=O)=O)c2ccc(-c3ccc(F)c(F)c3)cc2F)[C@@H]2C=CS(=O)(=O)C2)ccn1 (single isomer, unassigned) [I-804, (2R*)-N-[(3R)-1,1-dioxo-2,3-dihydro-1lambda6-thiophen-3-yl]-2-{[(1E)-2-methanesulfonylethenyl]oxy}-N-[(2-methoxypyridin-4-yl)methyl]-2-{3,3′,4′-trifluoro-[1,1′-biphenyl]-4-yl}acetamide]
16 | > 6.30 | COc1cc(CN(C(=O)Cn2cc(-c3ccc(Cl)cc3)cn2)C2C=CS(=O)(=O)C2)ccn1 (centres unmarked) [I-85, 2-[4-(4-chlorophenyl)-1H-pyrazol-1-yl]-N-(1,1-dioxo-2,3-dihydro-1lambda6-thiophen-3-yl)-N-[(2-methoxypyridin-4-yl)methyl]acetamide]
17 | > 6.30 | COc1cc(CN(C(=O)Cn2ccc(-c3ccc(F)cc3)cc2=O)[C@@H]2C=CS(=O)(=O)C2)ccn1 [I-660, N-[(3R)-1,1-dioxo-2,3-dihydro-1lambda6-thiophen-3-yl]-2-[4-(4-fluorophenyl)-2-oxo-1,2-dihydropyridin-1-yl]-N-[(2-methoxypyridin-4-yl)methyl]acetamide]
18 | > 6.30 | CC(C)(O)c1csc(CN(C(=O)Cc2ccc(-c3ccc(F)cc3)cc2F)C2C=CS(=O)(=O)C2)n1 (centres unmarked) [I-79, 2-(3,4′-difluoro-[1,1′-biphenyl]-4-yl)-N-(1,1-dioxido-2,3-dihydrothiophen-3-yl)-N-((4-(2-hydroxypropan-2-yl)thiazol-2-yl)methyl)acetamide]
19 | < 4.30 | COc1ccc2[nH]c(CC(=O)N(Cc3ccncc3)C3C=CS(=O)(=O)C3)cc2c1 (centres unmarked) [I-412, N-(1,1-dioxo-2,3-dihydro-1lambda6-thiophen-3-yl)-2-(5-methoxy-1H-indol-2-yl)-N-[(pyridin-4-yl)methyl]acetamide]
20 | > 6.30 | COC(C(=O)N(Cc1ccncc1)C1C=CS(=O)(=O)C1)c1ccc(-c2ccc(F)cc2)cc1 (single isomer, unassigned) [I-72, (2R*)-N-[(3R**)-1,1-dioxo-2,3-dihydro-1lambda6-thiophen-3-yl]-2-{4′-fluoro-[1,1′-biphenyl]-4-yl}-2-methoxy-N-[(pyridin-4-yl)methyl]acetamide]
21 | > 6.30 | COc1cc(CN(C(=O)[C@H](C(=O)N(C)C)c2ccc(-c3ccc(F)cc3)cc2F)[C@@H]2C=CS(=O)(=O)C2)ccn1 [I-9, (2S)-2-{3,4′-difluoro-[1,1′-biphenyl]-4-yl}-N-[(3R)-1,1-dioxo-2,3-dihydro-1lambda6-thiophen-3-yl]-N-[(2-methoxypyridin-4-yl)methyl]-N′,N′-dimethylpropanediamide]
22 | < 4.30 | O=C(Cc1ccc(-n2cccc2)cc1F)N(Cc1ccncc1)C1C=CS(=O)(=O)C1 (single isomer, unassigned) [I-520]
23 | > 6.30 | COc1cc(CN(C(=O)C(C(=O)N(C)CC2CC(F)(F)C2)c2ccc(-c3ccc(F)c(F)c3)cc2F)[C@@H]2C=CS(=O)(=O)C2)ccn1 (stereo partly drawn) [I-822, N-[(3,3-difluorocyclobutyl)methyl]-N′-[(3R)-1,1-dioxo-2,3-dihydro-1lambda6-thiophen-3-yl]-N′-[(2-methoxypyridin-4-yl)methyl]-N-methyl-2-{3,3′,4′-trifluoro-[1,1′-biphenyl]-4-yl}propanediamide]
24 | 4.30 to 5.00 | O=C(Cc1ccc(-n2cccc2)cc1)N(Cc1cccc2nccnc12)C1C=CS(=O)(=O)C1 (centres unmarked) [I-316, N-(1,1-dioxo-2,3-dihydro-1lambda6-thiophen-3-yl)-2-[4-(1H-pyrrol-1-yl)phenyl]-N-[(quinoxalin-5-yl)methyl]acetamide]
25 | < 4.30 | COc1ccc(COc2cc(CC(=O)N(Cc3ccnc(OC)c3)C3C=CS(=O)(=O)C3)ccc2-c2ccc(F)cn2)cc1 (centres unmarked) [I-451, N-(1,1-dioxo-2,3-dihydro-1lambda6-thiophen-3-yl)-2-[4-(5-fluoropyridin-2-yl)-3-[(4-methoxyphenyl)methoxy]phenyl]-N-[(2-methoxypyridin-4-yl)methyl]acetamide]
26 | < 4.30 | O=C(Cn1ncc2ccc(C(F)(F)F)cc21)N(Cc1ccncc1)C1C=CS(=O)(=O)C1 (centres unmarked) [I-455, N-(1,1-dioxo-2,3-dihydro-1lambda6-thiophen-3-yl)-N-[(pyridin-4-yl)methyl]-2-[6-(trifluoromethyl)-1H-indazol-1-yl]acetamide]
27 | 5.00 to 5.30 | COc1ccc(CN(C(=O)Cc2ccc(-n3cccc3)cc2)C2C=CS(=O)(=O)C2)cc1 (centres unmarked) [I-219, N-(1,1-dioxo-2,3-dihydro-1lambda6-thiophen-3-yl)-N-[(4-methoxyphenyl)methyl]-2-[4-(1H-pyrrol-1-yl)phenyl]acetamide]
28 | 5.00 to 5.30 | Cc1cnc(CN(C(=O)Cc2ccc(-n3cccc3)cc2)C2C=CS(=O)(=O)C2)s1 (centres unmarked) [I-274, N-(1,1-dioxo-2,3-dihydro-1lambda6-thiophen-3-yl)-N-[(5-methyl-1,3-thiazol-2-yl)methyl]-2-[4-(1H-pyrrol-1-yl)phenyl]acetamide]
29 | 4.30 to 5.00 | O=C(Cc1ccc(-n2cccc2)cc1)N(Cc1cccc(O)c1)C1C=CS(=O)(=O)C1 (centres unmarked) [I-292, N-(1,1-dioxo-2,3-dihydro-1lambda6-thiophen-3-yl)-N-[(3-hydroxyphenyl)methyl]-2-[4-(1H-pyrrol-1-yl)phenyl]acetamide]
